{"source": "patent US9539278B2", "about": "“Preparation for use of aspartate and vitamin B12 or biotin for regulating ketone bodies” (N.V. Nutricia, priority 2004, dated 2017)", "origin": "cited, not measured here", "test_system": "blood ketone body concentrations", "settings": "rats, after consumption of high doses of alanine", "data": [{"molecule": "C[C@H](N)C(=O)O", "note": "[alanine]", "values": [{"measurement": "blood levels of ketone bodies", "value": "decreased"}]}]}
